Assay results: ChEMBL document CHEMBL4038347, “Converting Teixobactin into a Cationic Antimicrobial Peptide (AMP)” (2017)
In brackets after ≈: the same amount, converted by molar mass. Activity calls are given as the source filed them. The rule behind the calls is not given here. Where a SMILES comes first, the peptide text is derived from it. Bridges are numbered along the chain shown (N, C = ends). [ ]: non-standard residue; d: D form. d(aIle) = CC[C@H](C)[C@@H](N)C(=O)O; dNMeF = CN[C@H](Cc1ccccc1)C(=O)O; Orn = NCCC[C@H](N)C(=O)O

How the values were obtained:
Assay type in all cases: functional
Staphylococcus aureus = assay: Antibacterial activity against Staphylococcus aureus ATCC 29213 after 24 hrs by broth microdilution method
Bacillus subtilis = assay: Antibacterial activity against Bacillus subtilis ATCC 6051 after 24 hrs by broth microdilution method
Escherichia coli = assay: Antibacterial activity against Escherichia coli ATCC 25922 after 24 hrs by broth microdilution method
Pseudomonas aeruginosa = assay: Antibacterial activity against Pseudomonas aeruginosa ATCC 27853 after 24 hrs by broth microdilution method

Row | SMILES | MIC (Staphylococcus aureus; ATCC 29213, 24 h) [µg/mL] | MIC (Bacillus subtilis; ATCC 6051, 24 h) [µg/mL] | MIC (Escherichia coli; ATCC 25922, 24 h) [µg/mL] | MIC (Pseudomonas aeruginosa; ATCC 27853, 24 h) [µg/mL] | MIC (Staphylococcus aureus) | MIC (Escherichia coli) | MIC (Pseudomonas aeruginosa) | MIC (Bacillus subtilis)
1 | CC[C@H](C)[C@H](NC(=O)[C@@H](Cc1ccccc1)NC)C(=O)N[C@@H](CCCCN)C(=O)N[C@H](CCC(N)=O)C(=O)N[C@@H](C(=O)N[C@H](C(=O)N[C@@H](CO)C(=O)N[C@H]1C(=O)N[C@@H](CCCCN)C(=O)N[C@@H](CCCCN)C(=O)N[C@@H]([C@@H](C)CC)C(=O)O[C@H]1C)[C@@H](C)CC)[C@@H](C)CC (stereo in doubt) | 4 (≈ 3.04 µM) | 1 (≈ 0.761 µM) | 32 (≈ 24.3 µM) | 128 (≈ 97.4 µM) |  |  |  | 
2 | CC[C@H](C)[C@H](NC(=O)[C@@H](Cc1ccccc1)NC)C(=O)N[C@@H](CCCCN)C(=O)N[C@H](CCC(N)=O)C(=O)N[C@@H](C(=O)N[C@H](C(=O)N[C@@H](CO)C(=O)N[C@H]1C(=O)N[C@@H](C)C(=O)N[C@@H](CCCN)C(=O)N[C@@H]([C@@H](C)CC)C(=O)O[C@H]1C)[C@@H](C)CC)[C@@H](C)CC | 2 (≈ 1.61 µM) | 2 (≈ 1.61 µM) | 64 (≈ 51.5 µM) | 256 (≈ 206 µM) |  |  |  | 
3 | CC[C@H](C)[C@H](NC(=O)[C@@H](Cc1ccccc1)NC)C(=O)N[C@@H](CCCCN)C(=O)N[C@H](CCCCN)C(=O)N[C@@H](C(=O)N[C@H](C(=O)N[C@@H](CO)C(=O)N[C@H]1C(=O)N[C@@H](C)C(=O)N[C@@H](CCCN)C(=O)N[C@@H]([C@@H](C)CC)C(=O)O[C@H]1C)[C@@H](C)CC)[C@@H](C)CC (H-[dNMeF]IK[dK][d(aIle)]IS[dT]A[Orn]I; ester 8-C) | 16 (≈ 12.9 µM) | 4 (≈ 3.22 µM) | 64 (≈ 51.5 µM) | 64 (≈ 51.5 µM) |  |  |  | 
4 | CC[C@H](C)[C@H](NC(=O)[C@@H](Cc1ccccc1)NC)C(=O)N[C@@H](CCCCN)C(=O)N[C@H](CCC(N)=O)C(=O)N[C@@H](C(=O)N[C@H](C(=O)N[C@@H](CCCCN)C(=O)N[C@H]1C(=O)N[C@@H](C)C(=O)N[C@@H](CCCN)C(=O)N[C@@H]([C@@H](C)CC)C(=O)O[C@H]1C)[C@@H](C)CC)[C@@H](C)CC (stereo in doubt) |  | 32 (≈ 24.9 µM) |  |  | inactive | inactive | inactive | 
5 | CC[C@H](C)[C@H](NC(=O)[C@@H](Cc1ccccc1)NC)C(=O)N[C@@H](CCCCN)C(=O)N[C@H](CCCCN)C(=O)N[C@@H](C(=O)N[C@H](C(=O)N[C@@H](CCCCN)C(=O)N[C@H]1C(=O)N[C@@H](C)C(=O)N[C@@H](CCCNC(=N)N)C(=O)N[C@@H]([C@@H](C)CC)C(=O)O[C@H]1C)[C@@H](C)CC)[C@@H](C)CC | 32 (≈ 24.1 µM) | 4 (≈ 3.01 µM) | 32 (≈ 24.1 µM) | 32 (≈ 24.1 µM) |  |  |  | 
6 | CC[C@H](C)[C@H](NC(=O)[C@@H](Cc1ccccc1)NC)C(=O)N[C@@H](CN)C(=O)N[C@H](CCC(N)=O)C(=O)N[C@@H](C(=O)N[C@H](C(=O)N[C@@H](CO)C(=O)N[C@H]1C(=O)N[C@@H](CN)C(=O)N[C@@H](CCCCN)C(=O)N[C@@H]([C@@H](C)CC)C(=O)O[C@H]1C)[C@@H](C)CC)[C@@H](C)CC | 4 (≈ 3.25 µM) | 4 (≈ 3.25 µM) | 64 (≈ 52 µM) | 64 (≈ 52 µM) |  |  |  | 
7 | CC[C@H](C)[C@H](NC(=O)[C@@H](Cc1ccccc1)NC)C(=O)N[C@@H](CCCCN)C(=O)N[C@H](CCCCN)C(=O)N[C@@H](C(=O)N[C@H](C(=O)N[C@@H](CO)C(=O)N[C@H]1C(=O)N[C@@H](C)C(=O)N[C@@H](CCCNC(=N)N)C(=O)N[C@@H]([C@@H](C)CC)C(=O)O[C@H]1C)[C@@H](C)CC)[C@@H](C)CC | 32 (≈ 24.9 µM) | 4 (≈ 3.11 µM) | 64 (≈ 49.8 µM) | 64 (≈ 49.8 µM) |  |  |  | 
8 | CC[C@H](C)[C@H](NC(=O)[C@@H](Cc1ccccc1)NC)C(=O)N[C@@H](CCCCN)C(=O)N[C@H](CCCCN)C(=O)N[C@@H](C(=O)N[C@H](C(=O)N[C@@H](CO)C(=O)N[C@H]1C(=O)N[C@@H](C)C(=O)N[C@@H](CCCCN)C(=O)N[C@@H]([C@@H](C)CC)C(=O)O[C@H]1C)[C@@H](C)CC)[C@@H](C)CC (H-[dNMeF]IK[dK][d(aIle)]IS[dT]AKI; ester 8-C) | 8 (≈ 6.36 µM) | 1 (≈ 0.795 µM) | 32 (≈ 25.4 µM) | 32 (≈ 25.4 µM) |  |  |  | 
9 | CC[C@H](C)[C@H](NC(=O)[C@@H](Cc1ccccc1)NC)C(=O)N[C@@H](CCCCN)C(=O)N[C@H](CCC(N)=O)C(=O)N[C@@H](C(=O)N[C@H](C(=O)N[C@@H](CCCCN)C(=O)N[C@H]1C(=O)N[C@@H](CCCCN)C(=O)N[C@@H](CCCCN)C(=O)N[C@@H]([C@@H](C)CC)C(=O)O[C@H]1C)[C@@H](C)CC)[C@@H](C)CC | 256 (≈ 189 µM) | 8 (≈ 5.9 µM) | 128 (≈ 94.4 µM) | 256 (≈ 189 µM) |  |  |  | 
10 | CC[C@H](C)[C@H](NC(=O)[C@@H](Cc1ccccc1)NC)C(=O)N[C@@H](CO)C(=O)N[C@H](CCC(N)=O)C(=O)N[C@@H](C(=O)N[C@H](C(=O)N[C@@H](CCCCN)C(=O)N[C@H]1C(=O)N[C@@H](C)C(=O)N[C@@H](CCCN)C(=O)N[C@@H]([C@@H](C)CC)C(=O)O[C@H]1C)[C@@H](C)CC)[C@@H](C)CC | 128 (≈ 103 µM) | 16 (≈ 12.9 µM) | 512 (≈ 412 µM) | 512 (≈ 412 µM) |  |  |  | 
11 | CC[C@H](C)[C@H](NC(=O)[C@@H](Cc1ccccc1)NC)C(=O)N[C@@H](CO)C(=O)N[C@H](CCC(N)=O)C(=O)N[C@@H](C(=O)N[C@H](C(=O)N[C@@H](CO)C(=O)N[C@H]1C(=O)N[C@@H](C)C(=O)N[C@@H](CCCN)C(=O)N[C@@H]([C@@H](C)CC)C(=O)O[C@H]1C)[C@@H](C)CC)[C@@H](C)CC | 2 (≈ 1.66 µM) | 0.25 (≈ 0.208 µM) | 32 (≈ 26.6 µM) | 256 (≈ 213 µM) |  |  |  | 
12 | CC[C@H](C)[C@H](NC(=O)[C@@H](Cc1ccccc1)NC)C(=O)N[C@@H](CO)C(=O)N[C@H](CCCCN)C(=O)N[C@@H](C(=O)N[C@H](C(=O)N[C@@H](CO)C(=O)N[C@H]1C(=O)N[C@@H](CCCCN)C(=O)N[C@@H](CCCCN)C(=O)N[C@@H]([C@@H](C)CC)C(=O)O[C@H]1C)[C@@H](C)CC)[C@@H](C)CC (H-[dNMeF]IS[dK][d(aIle)]IS[dT]KKI; ester 8-C) | 4 (≈ 3.14 µM) | 1 (≈ 0.785 µM) | 32 (≈ 25.1 µM) | 64 (≈ 50.3 µM) |  |  |  | 
13 | CC[C@H](C)[C@H](NC(=O)[C@@H](Cc1ccccc1)NC)C(=O)N[C@@H](CCCCN)C(=O)N[C@H](CCCCN)C(=O)N[C@@H](C(=O)N[C@H](C(=O)N[C@@H](CO)C(=O)N[C@H]1C(=O)N[C@@H](CCCCN)C(=O)N[C@@H](CCCCN)C(=O)N[C@@H]([C@@H](C)CC)C(=O)O[C@H]1C)[C@@H](C)CC)[C@@H](C)CC | 32 (≈ 24.3 µM) | 8 (≈ 6.08 µM) | 32 (≈ 24.3 µM) | 64 (≈ 48.7 µM) |  |  |  | 
14 | CC[C@H](C)[C@H](NC(=O)[C@@H](Cc1ccccc1)NC)C(=O)N[C@@H](CO)C(=O)N[C@H](CCC(N)=O)C(=O)N[C@@H](C(=O)N[C@H](C(=O)N[C@@H](CO)C(=O)N[C@H]1C(=O)N[C@@H](C)C(=O)N[C@@H](CC/N=C(\N(C)C)N2CCOCC2)C(=O)N[C@@H]([C@@H](C)CC)C(=O)O[C@H]1C)[C@@H](C)CC)[C@@H](C)CC | 64 (≈ 48.2 µM) | 4 (≈ 3.01 µM) |  |  |  | inactive | inactive | 
15 | CC[C@H](C)[C@H](NC(=O)[C@@H](Cc1ccccc1)NC)C(=O)N[C@@H](CO)C(=O)N[C@H](CN)C(=O)N[C@@H](C(=O)N[C@H](C(=O)N[C@@H](CN)C(=O)N[C@H]1C(=O)N[C@@H](CN)C(=O)N[C@@H](CCCCN)C(=O)N[C@@H]([C@@H](C)CC)C(=O)O[C@H]1C)[C@@H](C)CC)[C@@H](C)CC | 64 (≈ 53.9 µM) | 16 (≈ 13.5 µM) | 64 (≈ 53.9 µM) | 64 (≈ 53.9 µM) |  |  |  | 
16 | CC[C@H](C)[C@H](NC(=O)[C@@H](Cc1ccccc1)NC)C(=O)N[C@@H](CO)C(=O)N[C@H](CCC(N)=O)C(=O)N[C@@H](C(=O)N[C@H](C(=O)N[C@@H](CO)C(=O)N[C@H]1C(=O)N[C@@H](C)C(=O)N2C[C@@H](N)C[C@H]2C(=O)N[C@@H]([C@@H](C)CC)C(=O)O[C@H]1C)[C@@H](C)CC)[C@@H](C)CC |  |  |  |  | inactive | inactive | inactive | inactive
17 | CC[C@H](C)[C@H](NC(=O)[C@@H](Cc1ccccc1)NC)C(=O)N[C@@H](CO)C(=O)N[C@H](CCC(N)=O)C(=O)N[C@@H](C(=O)N[C@H](C(=O)N[C@@H](CO)C(=O)N[C@H]1C(=O)N[C@@H](CCCCN)C(=O)N[C@@H](CCCN)C(=O)N[C@@H]([C@@H](C)CC)C(=O)O[C@H]1C)[C@@H](C)CC)[C@@H](C)CC | 2 (≈ 1.59 µM) | 0.5 (≈ 0.397 µM) | 32 (≈ 25.4 µM) | 64 (≈ 50.8 µM) |  |  |  | 
18 | CC[C@H](C)[C@H](NC(=O)[C@@H](Cc1ccccc1)NC)C(=O)N[C@@H](CO)C(=O)N[C@H](CCC(N)=O)C(=O)N[C@@H](C(=O)N[C@H](C(=O)N[C@@H](CCCCN)C(=O)N[C@H]1C(=O)N[C@@H](CCCCN)C(=O)N[C@@H](CCCCN)C(=O)N[C@@H]([C@@H](C)CC)C(=O)O[C@H]1C)[C@@H](C)CC)[C@@H](C)CC | 128 (≈ 97.4 µM) | 8 (≈ 6.09 µM) | 128 (≈ 97.4 µM) | 256 (≈ 195 µM) |  |  |  | 
19 | CC[C@H](C)[C@H](NC(=O)[C@@H](Cc1ccccc1)NC)C(=O)N[C@@H](CO)C(=O)N[C@H](CCCCN)C(=O)N[C@@H](C(=O)N[C@H](C(=O)N[C@@H](CO)C(=O)N[C@H]1C(=O)N[C@@H](C)C(=O)N[C@@H](CCCN)C(=O)N[C@@H]([C@@H](C)CC)C(=O)O[C@H]1C)[C@@H](C)CC)[C@@H](C)CC | 2 (≈ 1.66 µM) | 2 (≈ 1.66 µM) | 64 (≈ 53.2 µM) | 256 (≈ 213 µM) |  |  |  | 
